Measurements: article PMC4977286 (Frontiers in Pharmacology, 2016)
Where two headings read alike, the source gives them in different places.

Tests used:
UGT1A1 = molecular target: T1, UGT1A1 (Homo sapiens, UniProt P22309)
T1 sequence (P22309 26-533): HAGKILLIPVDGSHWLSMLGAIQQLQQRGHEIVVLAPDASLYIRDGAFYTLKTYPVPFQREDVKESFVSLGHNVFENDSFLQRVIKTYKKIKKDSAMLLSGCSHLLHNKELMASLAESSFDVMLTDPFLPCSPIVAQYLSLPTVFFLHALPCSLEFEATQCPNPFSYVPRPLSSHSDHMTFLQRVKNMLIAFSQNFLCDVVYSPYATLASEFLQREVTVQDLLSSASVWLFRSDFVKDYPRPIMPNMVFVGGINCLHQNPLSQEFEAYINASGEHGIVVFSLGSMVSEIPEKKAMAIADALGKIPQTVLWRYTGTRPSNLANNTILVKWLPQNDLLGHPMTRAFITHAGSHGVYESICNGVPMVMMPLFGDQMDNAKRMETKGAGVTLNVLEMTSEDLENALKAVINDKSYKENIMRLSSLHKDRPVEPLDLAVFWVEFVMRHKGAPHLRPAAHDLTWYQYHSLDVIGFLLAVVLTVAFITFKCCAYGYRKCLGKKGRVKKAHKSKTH

rat liver microsomes = details: for TNP-G formation, Liver microsome: rat
MRP2 [1] = molecular target: MRP2 (Rattus norvegicus, UniProt Q63120); test: Bile clearance of TNP-G in SCRH with MRP2 inhibitors or inducer; details: for BEI of TNP-G, % of the control cells: TNP-G 20 μM; for BEI of TNP-G, % of the control cells / CLbile, int of TNP-G decreased by: inhibitor 100 μM
Chain of MRP2 (Rattus norvegicus, UniProt Q63120) (Q63120 whole entry): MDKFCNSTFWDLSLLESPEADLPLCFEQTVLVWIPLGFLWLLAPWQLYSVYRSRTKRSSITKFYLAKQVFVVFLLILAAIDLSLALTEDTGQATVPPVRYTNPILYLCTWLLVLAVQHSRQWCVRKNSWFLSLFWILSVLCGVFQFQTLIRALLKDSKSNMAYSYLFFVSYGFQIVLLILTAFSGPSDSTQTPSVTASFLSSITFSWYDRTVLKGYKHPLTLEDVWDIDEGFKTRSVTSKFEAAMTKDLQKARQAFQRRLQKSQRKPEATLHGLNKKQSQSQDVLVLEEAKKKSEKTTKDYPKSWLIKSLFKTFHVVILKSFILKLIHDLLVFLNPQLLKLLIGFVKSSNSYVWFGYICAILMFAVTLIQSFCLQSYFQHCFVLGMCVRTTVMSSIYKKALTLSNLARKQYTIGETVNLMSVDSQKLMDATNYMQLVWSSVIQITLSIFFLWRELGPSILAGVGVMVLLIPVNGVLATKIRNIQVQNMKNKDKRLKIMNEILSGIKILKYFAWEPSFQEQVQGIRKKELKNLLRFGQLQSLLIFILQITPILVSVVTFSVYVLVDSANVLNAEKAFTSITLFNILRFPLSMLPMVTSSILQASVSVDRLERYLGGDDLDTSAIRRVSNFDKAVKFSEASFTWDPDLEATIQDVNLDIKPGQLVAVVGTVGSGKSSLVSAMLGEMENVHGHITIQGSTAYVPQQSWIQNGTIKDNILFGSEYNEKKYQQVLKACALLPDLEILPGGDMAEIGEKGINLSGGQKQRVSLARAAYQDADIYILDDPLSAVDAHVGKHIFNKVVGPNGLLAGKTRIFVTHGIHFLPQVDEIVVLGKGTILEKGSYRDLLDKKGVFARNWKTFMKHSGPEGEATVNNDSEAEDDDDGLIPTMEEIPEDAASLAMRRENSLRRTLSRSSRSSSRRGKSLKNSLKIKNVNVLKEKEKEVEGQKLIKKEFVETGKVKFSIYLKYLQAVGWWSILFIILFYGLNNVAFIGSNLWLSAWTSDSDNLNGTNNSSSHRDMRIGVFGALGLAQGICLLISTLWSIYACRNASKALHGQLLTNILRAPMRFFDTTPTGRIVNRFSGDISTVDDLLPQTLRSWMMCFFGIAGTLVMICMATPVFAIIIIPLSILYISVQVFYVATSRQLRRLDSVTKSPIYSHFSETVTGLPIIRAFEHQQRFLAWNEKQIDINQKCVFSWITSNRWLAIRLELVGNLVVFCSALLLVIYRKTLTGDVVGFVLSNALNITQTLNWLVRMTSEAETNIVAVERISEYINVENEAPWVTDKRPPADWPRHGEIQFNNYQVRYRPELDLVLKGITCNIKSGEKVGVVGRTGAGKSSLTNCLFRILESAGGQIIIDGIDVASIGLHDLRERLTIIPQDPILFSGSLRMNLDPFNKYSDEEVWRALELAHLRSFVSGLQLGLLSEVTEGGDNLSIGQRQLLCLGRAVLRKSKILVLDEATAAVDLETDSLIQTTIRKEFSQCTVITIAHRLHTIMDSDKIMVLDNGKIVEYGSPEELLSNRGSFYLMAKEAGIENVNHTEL

[2] = rat, in vivo
MRP2 [3] = molecular target: T2, MRP2 (Homo sapiens, UniProt Q92887); assay type: biochemical; design: purchased BD Gentest Co. (Woburn, MA)
T2 sequence (Q92887 whole entry): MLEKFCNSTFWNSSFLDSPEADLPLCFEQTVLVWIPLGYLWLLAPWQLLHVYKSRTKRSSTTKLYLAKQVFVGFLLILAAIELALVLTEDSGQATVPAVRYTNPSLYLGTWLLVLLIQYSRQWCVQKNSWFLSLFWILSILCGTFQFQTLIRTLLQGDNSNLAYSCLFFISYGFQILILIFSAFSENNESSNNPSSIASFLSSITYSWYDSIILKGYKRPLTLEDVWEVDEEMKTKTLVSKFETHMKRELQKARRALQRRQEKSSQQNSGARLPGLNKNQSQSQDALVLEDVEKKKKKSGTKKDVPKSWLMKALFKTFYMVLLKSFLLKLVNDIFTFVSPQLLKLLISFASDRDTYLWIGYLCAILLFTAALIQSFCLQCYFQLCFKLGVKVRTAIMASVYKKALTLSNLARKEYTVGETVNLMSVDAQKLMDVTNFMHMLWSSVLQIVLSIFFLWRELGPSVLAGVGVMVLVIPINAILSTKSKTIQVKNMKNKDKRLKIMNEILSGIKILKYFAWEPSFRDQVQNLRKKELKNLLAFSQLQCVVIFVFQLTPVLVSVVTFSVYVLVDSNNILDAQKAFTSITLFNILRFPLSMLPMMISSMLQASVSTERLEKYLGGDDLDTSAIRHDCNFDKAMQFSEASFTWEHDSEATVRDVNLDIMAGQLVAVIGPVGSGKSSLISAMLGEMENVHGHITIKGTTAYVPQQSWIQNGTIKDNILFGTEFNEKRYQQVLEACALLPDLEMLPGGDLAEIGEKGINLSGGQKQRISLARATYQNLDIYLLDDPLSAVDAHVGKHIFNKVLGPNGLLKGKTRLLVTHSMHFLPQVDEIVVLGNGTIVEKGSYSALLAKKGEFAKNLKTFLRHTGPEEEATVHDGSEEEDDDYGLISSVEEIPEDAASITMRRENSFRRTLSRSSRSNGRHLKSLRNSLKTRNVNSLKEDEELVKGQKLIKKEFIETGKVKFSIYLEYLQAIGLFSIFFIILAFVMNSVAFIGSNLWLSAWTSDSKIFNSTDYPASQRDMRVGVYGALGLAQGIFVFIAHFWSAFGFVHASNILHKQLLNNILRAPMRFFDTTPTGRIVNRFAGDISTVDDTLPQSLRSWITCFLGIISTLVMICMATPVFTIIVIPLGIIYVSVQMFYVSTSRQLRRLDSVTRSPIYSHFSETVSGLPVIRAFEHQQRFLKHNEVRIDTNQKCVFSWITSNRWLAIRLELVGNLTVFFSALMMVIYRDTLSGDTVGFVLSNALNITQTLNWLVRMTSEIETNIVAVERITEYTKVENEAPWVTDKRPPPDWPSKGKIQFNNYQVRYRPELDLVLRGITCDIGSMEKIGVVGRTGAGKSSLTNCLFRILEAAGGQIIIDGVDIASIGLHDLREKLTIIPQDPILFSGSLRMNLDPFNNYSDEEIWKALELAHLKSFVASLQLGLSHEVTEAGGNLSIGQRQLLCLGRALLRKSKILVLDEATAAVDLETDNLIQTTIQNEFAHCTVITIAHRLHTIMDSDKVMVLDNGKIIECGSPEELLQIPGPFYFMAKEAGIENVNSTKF

P-gp [4] = tested on: P-gp
BCRP = molecular target: T3, BCRP (Homo sapiens, UniProt Q9UNQ0)
T3 sequence (Q9UNQ0 1-655): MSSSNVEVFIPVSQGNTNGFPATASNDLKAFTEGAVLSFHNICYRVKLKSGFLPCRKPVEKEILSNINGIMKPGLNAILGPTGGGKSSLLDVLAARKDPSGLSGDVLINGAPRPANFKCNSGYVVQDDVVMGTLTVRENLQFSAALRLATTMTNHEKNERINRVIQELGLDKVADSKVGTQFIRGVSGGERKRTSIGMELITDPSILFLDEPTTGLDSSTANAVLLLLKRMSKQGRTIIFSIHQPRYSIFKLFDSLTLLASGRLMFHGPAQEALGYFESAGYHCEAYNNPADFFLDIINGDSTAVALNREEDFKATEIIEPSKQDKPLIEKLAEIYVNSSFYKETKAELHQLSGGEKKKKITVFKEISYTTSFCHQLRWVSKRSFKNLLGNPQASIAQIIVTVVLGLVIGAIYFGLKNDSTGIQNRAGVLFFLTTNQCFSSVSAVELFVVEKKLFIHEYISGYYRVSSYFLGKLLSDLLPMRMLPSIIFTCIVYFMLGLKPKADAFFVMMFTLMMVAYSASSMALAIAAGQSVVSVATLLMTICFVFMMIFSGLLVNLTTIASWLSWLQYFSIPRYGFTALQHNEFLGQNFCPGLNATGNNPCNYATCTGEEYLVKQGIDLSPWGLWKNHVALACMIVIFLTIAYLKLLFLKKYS

[5] = tested on: sandwich-cultured rat hepatocytes (SCRH)
[6] = mouse, in vivo
in vivo [7] = details: rat
MRP2 [8] = molecular target: T2, MRP2
P-gp [9] = molecular target: P-gp (Homo sapiens, UniProt P08183)
Chain of P-gp (Homo sapiens, UniProt P08183) (P08183 whole entry): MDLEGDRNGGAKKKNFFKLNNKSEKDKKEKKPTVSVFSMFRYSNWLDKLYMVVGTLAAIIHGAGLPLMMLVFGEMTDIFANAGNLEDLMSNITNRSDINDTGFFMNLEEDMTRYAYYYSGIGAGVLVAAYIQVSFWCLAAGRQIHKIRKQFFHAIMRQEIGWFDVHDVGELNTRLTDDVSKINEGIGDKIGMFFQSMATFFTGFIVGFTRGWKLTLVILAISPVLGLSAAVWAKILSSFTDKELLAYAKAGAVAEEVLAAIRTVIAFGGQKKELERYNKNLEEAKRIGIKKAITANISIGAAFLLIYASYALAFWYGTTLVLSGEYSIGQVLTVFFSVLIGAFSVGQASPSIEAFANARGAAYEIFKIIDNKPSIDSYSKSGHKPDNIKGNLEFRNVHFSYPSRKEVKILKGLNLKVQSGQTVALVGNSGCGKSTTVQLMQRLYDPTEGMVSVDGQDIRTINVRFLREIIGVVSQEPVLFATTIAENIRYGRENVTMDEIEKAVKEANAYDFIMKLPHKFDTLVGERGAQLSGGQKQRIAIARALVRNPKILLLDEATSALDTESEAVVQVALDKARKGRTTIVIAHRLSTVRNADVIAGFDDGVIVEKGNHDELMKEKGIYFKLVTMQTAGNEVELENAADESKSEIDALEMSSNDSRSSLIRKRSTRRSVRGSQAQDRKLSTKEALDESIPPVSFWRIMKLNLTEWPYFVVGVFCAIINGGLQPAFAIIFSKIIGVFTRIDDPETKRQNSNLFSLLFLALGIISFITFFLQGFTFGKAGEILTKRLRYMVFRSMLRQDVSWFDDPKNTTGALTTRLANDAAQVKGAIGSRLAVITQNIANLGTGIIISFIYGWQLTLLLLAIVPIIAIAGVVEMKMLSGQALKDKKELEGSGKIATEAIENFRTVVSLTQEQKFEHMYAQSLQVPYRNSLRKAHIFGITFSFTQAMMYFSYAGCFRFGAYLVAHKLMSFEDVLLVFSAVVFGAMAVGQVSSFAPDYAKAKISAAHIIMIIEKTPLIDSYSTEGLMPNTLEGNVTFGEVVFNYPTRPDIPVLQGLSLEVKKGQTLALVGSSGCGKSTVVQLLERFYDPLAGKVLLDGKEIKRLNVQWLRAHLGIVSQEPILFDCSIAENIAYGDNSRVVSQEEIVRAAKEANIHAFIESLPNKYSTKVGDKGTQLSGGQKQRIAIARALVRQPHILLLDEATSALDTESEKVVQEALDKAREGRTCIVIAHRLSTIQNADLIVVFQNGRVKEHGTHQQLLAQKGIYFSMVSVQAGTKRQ

MDR1 = MDR1 (Homo sapiens, UniProt P08183)
[10] = cited from earlier work
in vivo [11] = details: mouse, po, 12 mg/kg

C[C@@H]1C[C@H]2[C@@H]3CCC4=CC(=O)C=C[C@]4(C)[C@@]3(F)[C@@H](O)C[C@]2(C)[C@@]1(O)C(=O)CO [Dexamethasone, dexamethasone]
TNP-G formation, UGT1A1 (UGT1A1): 1542.4 ± 27.9 ng/mL | TNP-G formation, Liver microsome (rat liver microsomes): 2219.3 ± 52.8 ng/mL

CN(Cc1cnc2nc(N)nc(N)c2n1)c1ccc(C(=O)N[C@@H](CCC(=O)O)C(=O)O)cc1 [Methotrexate, methotrexate]
BEI of TNP-G, % of the control cells (MRP2 [1]): 20% | CLbile, int of TNP-G decreased by (MRP2 [1]): 74.2%

CCCN(CCC)S(=O)(=O)c1ccc(C(=O)O)cc1 [Probenecid, probenecid]
BEI of TNP-G, % of the control cells (MRP2 [1]): 22.8% | CLbile, int of TNP-G decreased by (MRP2 [1]): 78.1% | TNP-G formation, UGT1A1 (UGT1A1): 1527.5 ± 83.9 ng/mL | 24 h biliary excretion rate of TNP-G, % of the control level [2]: 74% | effect on TNP glucuronidation (rat liver microsomes): no significant effect | TNP-G formation, Liver microsome (rat liver microsomes; 60 min, 100 µM): 2191.5 ± 123.1 ng/mL | Vanadate-sensitive ATPase activities, MRP2 (MRP2 [3]): 5.7 ± 0.2 nmol/min/mg

O=c1c(O)c(-c2ccc(O)c(O)c2)oc2cc(O)cc(O)c12 [Quercetin, quercetin]
TNP-G formation, UGT1A1 (UGT1A1): 1590.8 ± 30.5 ng/mL | TNP-G formation, Liver microsome (rat liver microsomes; 60 min, 100 µM): 2170.7 ± 33.6 ng/mL | BEI of TNP, fold compared with the control (P-gp [4]; rat): 2.1 fold | CLbile, int of TNP, fold compared with the control (P-gp [4]; rat): 1.7 fold

O=C(O)c1cc(/N=N/c2ccc(S(=O)(=O)Nc3ccccn3)cc2)ccc1O [Sulfasalazine, sulfasalazine, reference compound]
Vanadate-sensitive ATPase activities, BCRP (BCRP): 32.2 ± 1.3 nmol/min/mg

COC12CCC3(CC1C(C)(O)CCc1cccs1)C1Cc4ccc(OC5OC(C(=O)O)C(O)C(O)C5O)c5c4C3(CCN1CC1CC1)C2O5 (stereo not shown) [TNP-G, thienorphine-3-glucuronide]
CLbile, int From Eq. 2 [5]: 11.2 ± 2.7 mL/min/kg | CLbile,pred (plasma total concentration) relative to measured CLbile,obs [5]: ~1.3 fold | CLbile,pred From Eq. 3 [5]: 8.7 ± 1.7 mL/min/kg | CLbile,pred From Eq. 4 [5]: 0.2 ± 0.01 mL/min/kg | average BEI (biliary excretion index) [5]: 41.4 ± 2.6 | CLbile,int of TNP-G (MRP2 [1]; dexamethasone 0 μM (control)): 4.2 ± 0.1 mL/min/kg | CLbile,int of TNP-G (MRP2 [1]; methotrexate 0 μM (control)): 3.1 ± 0.4 mL/min/kg | CLbile,int of TNP-G (MRP2 [1]; probenecid 0 μM (control)): 1.6 ± 0.03 mL/min/kg | increase in AUC0-t compared to the NC-siRNA group [6]: 1.9 fold | increase in Cmax compared to the NC-siRNA group [6]: 2.7 fold | AUC(0-t) ([6]; po, 12 mg/kg): 202.7 ± 70.7 ng·h/mL | MRT ([6]; po, 12 mg/kg): 6.7 ± 1.7 h | t1/2 ([6]; po, 12 mg/kg): 6.1 ± 1.1 h | dose excreted (in vivo [7]): ≤ 28% | CLbile,obs From Eq.5 [2]: 6.9 ± 0.5 mL/min/kg | intracellular concentration, increase compared with the NC-siRNA group (MRP2 [8]): 2.1 fold | intracellular concentration, increase compared with the NC-siRNA group (P-gp [9]): not impacted | Vanadate-sensitive ATPase activities, BCRP (BCRP): 5.8 ± 0.8 nmol/min/mg | Transporter substrate finding, MRP2 (MRP2 [3]): MRP2 substrate | Vanadate-sensitive ATPase activities, MRP2 (MRP2 [3]): 4.1 ± 0.6 nmol/min/mg | Vanadate-sensitive ATPase activities, MDR1 (MDR1): 4.2 ± 0.8 nmol/min/mg | fu,p (plasma unbound fraction) [10]: 0.02 | AUC(0-t) (in vivo [11]; AUC(0-t)): 108 ± 19.6 ng·h/mL | MRT (in vivo [11]; MRT): 5.7 ± 2 h | half-life (in vivo [11]; t1/2): 4.3 ± 1.7 h

COc1cc2c(cc1OC)CN(CCc1ccc(NC(=O)c3cc(OC)c(OC)cc3NC(=O)c3cnc4ccccc4c3)cc1)CC2 [Tariquidar, tariquidar]
TNP-G formation, UGT1A1 (UGT1A1; 60 min, 100 µM): 1533.8 ± 25.4 ng/mL | cumulative bile excretion of TNP, % of the control level [2]: 45% | TNP-G formation, Liver microsome (rat liver microsomes; 60 min, 100 µM): 2154.6 ± 26.9 ng/mL | BEI of TNP, % of the control cells (P-gp [4]): 34.5% | CLbile, int of TNP reduced to (P-gp [4]): 83.1%
